# From ChEMBL document CHEMBL5352446, “Synthesis and biological evaluation of a novel c-Myc inhibitor against colorectal cancer via blocking c-Myc/Max heterodimerization and disturbing its DNA binding” (Eur J Med Chem, 2022)
# Experiments:
# HCT-15 = assay: Antiproliferative activity against human HCT-15 cells incubated for 72 hrs by MTT assay; assay type: functional, cell-based; details: HCT-15, 72 h
# HCT-8 = assay: Antiproliferative activity against human HCT-8 cells incubated for 72 hrs by MTT assay; assay type: functional, cell-based; details: HCT-8, 72 h
# HT-29 [1] = assay: cells; details: Homo sapiens, HT-29, 72 h
# Description: Antiproliferative activity against human HT-29 cells incubated for 72 hrs by MTT assay
# HCT-116 = assay: cells; details: Homo sapiens, HCT-116, 72 h
# Description: Antiproliferative activity against human HCT-116 cells incubated for 72 hrs by MTT assay
# [2] = Inhibition of c-Myc/Max binding to DNA (unknown origin) by fluorescence polarization assay; set-up: species or system Homo sapiens
# HT-29 [3] = assay: Inhibition of colony formation in human HT-29 cells measured after 14 days by crystal violet staining based assay; assay type: functional, cell-based; details: dose 0.25-2 µM, time 14.0 day
# HT-29 [4] = assay: Downregulation of c-Myc expression in human […] cells incubated for 24 hrs by Western blot analysis; assay type: functional, cell-based; details: dose 2.5-10 µM
# Homo sapiens = species: Homo sapiens; assay: Inhibition of human Myc (353 to 439 residues)/Max(S) (151 residues) expressed in Escherichia coli BL21(DE3) binding to biotinylated double-stranded DNA oligonucleotide 5'-CACCCGGTCACTGGCCTACAC-3' (unknown origin) preincubated for 90 mins followed by oligonucleotide addition for 25 mins by EMSA; details: time 115.0 min
# HT-29 [5] = assay: Antitumor activity against human HT-29 cells xenografted in BALB/c mouse assessed as tumor growth inhibition at 40 mg/kg, ip administered daily for 3 weeks by caliper method; assay type: functional; details: HT-29, 504 h, read-out: TGI
SMILES,IC50 (HCT-15) [µM],IC50 (HCT-8) [µM],IC50 (HT-29 [1]) [µM],IC50 (HCT-116) [µM],IC50 [2] [µM],inhibition (HT-29 [3]),Activity (HT-29 [4]),inhibition (Homo sapiens),inhibition in vivo at 40 mg/kg (HT-29 [5]) [%]
COc1cc(Oc2ccc(Nc3ccc(C#N)cc3)cc2)cc(OC)c1CNCCc1ccc(C(F)(F)F)cc1,2.43,6.75,0.9,2.38,,,,,
COc1cc(Oc2ccc(-c3ccccc3)cc2)cc(OC)c1CNCCc1ccc(C(F)(F)F)cc1,1.55,6.98,1.41,2.8,,,,,
COc1cc(Oc2ccc(Nc3ccc(C)cc3)cc2)cc(OC)c1CNCCc1ccc(C(F)(F)F)cc1,5.61,7.13,1.11,2.13,,,,,
COc1cc(Oc2ccc(Nc3ccccc3)cc2)cc(OC)c1CNCCc1ccc(O)cc1,4.54,6.78,2.75,3.46,,,,,
COc1cc(Oc2ccc(Nc3ccccc3)cc2)cc(OC)c1CNCCc1ccccn1,6.87,11.2,2.94,2.76,,,,,
COc1cc(Oc2ccc(-c3ccc(F)cc3)cc2)cc(OC)c1CNCCc1ccc(C(F)(F)F)cc1,4.23,7.89,1.95,3.77,,,,,
COc1cc(Oc2ccc(Nc3ccccc3)cc2)cc(OC)c1CNCCc1ccc(Cl)cc1,6.64,6.13,2.44,4.98,,,,,
COc1cc(Oc2ccc(-c3ccc(C(F)(F)F)cc3)cc2)cc(OC)c1CNCCc1ccc(C(F)(F)F)cc1,4.89,8.76,2.51,4.7,,,,,
COc1cc(Oc2ccc(Nc3ccc(SC)cc3)cc2)cc(OC)c1CNCCc1ccc(C(F)(F)F)cc1,2.13,8.36,1.72,3.79,,,,,
COc1cc(Oc2ccc(Nc3ccc(Br)cc3)cc2)cc(OC)c1CNCCc1ccc(C(F)(F)F)cc1,3.85,6.98,1.31,3.54,,,,,
COc1cc(Oc2ccc(Nc3ccc(C(F)(F)F)c(F)c3)cc2)cc(OC)c1CNCCc1ccc(C(F)(F)F)cc1,2.34,8.63,1.42,1.74,,,,,
C=C(OCC)c1cnn(-c2ccccc2)c1NC(=O)c1cc2nc(-c3ccco3)cc(C(F)(F)Cl)n2n1,,,,,40,,,,
COc1cc(Oc2ccc(Nc3ccc(C(=O)C(F)(F)F)cc3)cc2)cc(OC)c1CNCCc1ccc(C(F)(F)F)cc1,1.89,7.86,1.93,2.43,,,,,
COc1ccc(CCNCc2c(OC)cc(Oc3ccc(Nc4ccccc4)cc3)cc2OC)cc1OC,3.54,6.32,1.54,2.62,,,,,
CCc1ccc(Nc2ccc(Oc3cc(OC)c(CNCCc4ccc(C(F)(F)F)cc4)c(OC)c3)cc2)cc1,5.54,4.58,1.51,3.87,,,,,
COc1cc(Oc2ccc(-c3ccc(C)cc3)cc2)cc(OC)c1CNCCc1ccc(C(F)(F)F)cc1,2.32,8.95,1.35,2.41,,,,,
COc1ccc(-c2ccc(Oc3cc(OC)c(CNCCc4ccc(C(F)(F)F)cc4)c(OC)c3)cc2)cc1,2.34,6.45,2.19,2.62,,,,,
COc1cc(Oc2ccc(Nc3ccc(C(F)(F)F)c(C(F)(F)F)c3)cc2)cc(OC)c1CNCCc1ccc(C(F)(F)F)cc1,2.12,6.98,2.35,1.64,,,,,
COc1cc(Oc2ccc(Nc3ccc(-c4ccccc4)cc3)cc2)cc(OC)c1CNCCc1ccc(C(F)(F)F)cc1,3.41,5.88,1.7,3.85,,,,,
COc1ccc(CCNCc2c(OC)cc(Oc3ccc(Nc4ccccc4)cc3)cc2OC)cc1,3.15,4.81,1.36,1.95,,Dose-Dependent Effect,Dose-Dependent Effect,Dose-Dependent Effect,55.8
COc1cc(Oc2ccc(Nc3ccc(CO)cc3)cc2)cc(OC)c1CNCCc1ccc(C(F)(F)F)cc1,3.33,3.23,1.03,3.22,,,,,
COc1cc(Oc2ccc(Nc3ccccc3)cc2)cc(OC)c1CNCCc1cccs1,7.56,10.8,2.65,3.85,,,,,
CCOc1ccc(Nc2ccc(Oc3cc(OC)c(CNCCc4ccc(C(F)(F)F)cc4)c(OC)c3)cc2)cc1,5.3,5.32,0.86,3.08,,,,,
